Measurements taken from patent US12606528B2, “Methods and materials for inhibiting NF-kB activity” (University of Pittsburgh - Of the Commonwealth System of …, priority 2019, dated 2026).
Read-outs that look alike come from different tables or passages of the source.

Tests used:
NF-κB = NF-κB assay: THP1-NF-κB-LUC cells, LPS-stimulated secreted luciferase; assay type: cell-based; conditions: THP1-NF-κB-LUC cells, read-out: IC50 (NF-κB assay)
Procedure, shortened: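 THP1-NF-κB-LUC cells (25k/well) were pretreated with compounds for 2 h, then stimulated with LPS (10 ng/mL) for 18 h. Secreted luciferase was measured and normalized to vehicle, and IC50 was fitted from the concentration series.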

TNF release = assay: TNF assay: TNF release from LPS-stimulated human PBMCs (TNF ELISA); assay type: cell-based; conditions: PBMC, read-out: IC50 (TNF assay)
Procedure, shortened: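 TNF ELISA on supernatants read-out; cells were 10k human PBMCs/well given LPS at 10 ng/mL for 18 h after a 2 h compound pre-incubation across a concentration series, with IC50 derived for suppression of TNF secretion.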

[1] = LPS-stimulated human PBMCs, TNF ELISA
[2] = compounds 2 hours before LPS (10 ng/mL) for 18 hours, secreted luciferase
[3] = human PBMCs, compounds 2 hours before LPS (10 ng/ml) for 18 hours, supernatant TNF ELISA

Compound: CC#CC(=O)Nc1ccc2nc(-c3ccc(F)cc3)c(-c3ccc(F)cc3)nc2c1 [BC19314]
- IC50 (NF-κB; LPS-stimulated): < 100 nM
- IC50 (TNF release; [1]): 1000 to 10000 nM

Compound: C[C@H](Cl)C(=O)Nc1ccc2nc(-c3ccc(F)cc3)c(-c3ccc(F)cc3)nc2c1 [BC19315]
- IC50 (NF-κB; LPS-stimulated): 100 to 1000 nM
- IC50 (TNF release; [1]): > 10000 nM

Compound: CN1CCN(C(=O)c2ccc3nc(-c4ccc(F)cc4)c(-c4ccc(C#N)cc4)nc3c2)CC1 [BC19316]
- IC50 (NF-κB; LPS-stimulated): 100 to 1000 nM
- IC50 (TNF release; [1]): > 10000 nM

Compound: CN1CCN(C(=O)c2ccc3nc(-c4ccc(F)cc4)c(-c4ccc(Cl)cc4)nc3c2)CC1 [BC19317]
- IC50 (NF-κB; LPS-stimulated): < 100 nM
- IC50 (TNF release; [1]): > 10000 nM

Compound: CN1CCN(C(=O)c2ccc3nc(-c4ccc(F)cc4)c(-c4ccc(F)cc4F)nc3c2)CC1 [BC19318]
- IC50 (NF-κB; LPS-stimulated): < 100 nM
- IC50 (TNF release; [1]): > 10000 nM

Compound: CCc1ccc(-c2nc3cc(C(=O)N4CCN(C)CC4)ccc3nc2-c2ccc(F)cc2)cc1 [BC19319]
- IC50 (NF-κB; LPS-stimulated): 1000 to 10000 nM
- IC50 (TNF release; [1]): > 10000 nM

Compound: O=C(O)c1cccc2nc(-c3ccc(F)cc3)c(-c3ccc(F)cc3)nc12 [BC19320]
- IC50 (NF-κB; LPS-stimulated): > 10000 nM
- IC50 (TNF release; [1]): > 10000 nM

Compound: C#CCNC(=O)c1cccc2nc(-c3ccc(F)cc3)c(-c3ccc(F)cc3)nc12 [BC19321]
- IC50 (NF-κB; LPS-stimulated): 1000 to 10000 nM
- IC50 (TNF release; [1]): > 10000 nM

Compound: Cc1ccc(S(=O)(=O)c2c(O)[nH]c3ncccc3c2=O)cc1F [BC19322]
- IC50 (NF-κB; [2]): 1000 to 10000 nM
- IC50 (TNF release; [3]): > 10000 nM

Compound: O=c1c(S(=O)(=O)c2ccc(F)cc2)c(O)[nH]c2ncccc12 [BC19323]
- IC50 (NF-κB; [2]): > 10000 nM
- IC50 (TNF release; [3]): > 10000 nM

Compound: Nc1cccc2cc(S(=O)(=O)c3ccccc3)cnc12 [BC19324]
- IC50 (NF-κB; [2]): > 10000 nM
- IC50 (TNF release; [3]): 100 to 1000 nM

Compound: CNc1cccc2cc(S(=O)(=O)c3ccccc3)cnc12 [BC19325]
- IC50 (NF-κB; [2]): > 10000 nM
- IC50 (TNF release; [3]): 1000 to 10000 nM

Compound: CN(C)c1cccc2cc(S(=O)(=O)c3ccccc3)cnc12 [BC19326]
- IC50 (NF-κB; [2]): > 10000 nM
- IC50 (TNF release; [3]): 1000 to 10000 nM

Compound: O=S(=O)(c1cccc(F)c1)c1nc(-c2ccccc2)oc1[S+]([O-])C1CCCCC1 (stereo not drawn) [BC19327]
- IC50 (NF-κB; LPS-stimulated): 1000 to 10000 nM
- IC50 (TNF release; [1]): 1000 to 10000 nM

Compound: O=S(=O)(c1cccc(F)c1)c1nc(-c2ccccc2)oc1S(=O)(=O)C1CCCCC1 [BC19328]
- IC50 (NF-κB; LPS-stimulated): < 100 nM
- IC50 (TNF release; [1]): 100 to 1000 nM

Compound: CS(=O)(=O)c1oc(-c2ccccc2)nc1S(=O)(=O)c1ccc(Cl)cc1 [BC19329]
- IC50 (NF-κB; LPS-stimulated): < 100 nM
- IC50 (TNF release; [1]): < 100 nM

Compound: O=S(=O)(CC1CC1)c1oc(-c2ccccc2)nc1S(=O)(=O)c1ccc(Cl)cc1 [BC19330]
- IC50 (NF-κB; LPS-stimulated): 100 to 1000 nM
- IC50 (TNF release; [1]): 100 to 1000 nM

Compound: COCCS(=O)(=O)c1oc(-c2ccccc2)nc1S(=O)(=O)c1ccc(Cl)cc1 [BC19331]
- IC50 (NF-κB; LPS-stimulated): < 100 nM
- IC50 (TNF release; [1]): < 100 nM

Compound: CCC[S+]([O-])c1oc(-c2ccc(F)cc2)nc1S(=O)(=O)c1ccc(Cl)cc1 (stereo not drawn) [BC19332]
- IC50 (NF-κB; LPS-stimulated): 100 to 1000 nM
- IC50 (TNF release; [1]): < 100 nM

Compound: COCCS(=O)(=O)c1oc(-c2ccc(F)cc2)nc1S(=O)(=O)c1ccc(Cl)cc1 [BC19333]
- IC50 (NF-κB; LPS-stimulated): < 100 nM
- IC50 (TNF release; [1]): < 100 nM

Compound: CC(C)S(=O)(=O)c1sc(-c2ccccc2)nc1S(=O)(=O)c1ccc(F)c(F)c1 [BC19334]
- IC50 (NF-κB; LPS-stimulated): > 10000 nM
- IC50 (TNF release; [1]): 1000 to 10000 nM

Compound: Cc1ccc(Cl)cc1NC(=O)CS(=O)(=O)c1[nH]c(-c2ccccc2)nc1S(=O)(=O)c1ccccc1 [BC19335]
- IC50 (NF-κB; LPS-stimulated): > 10000 nM
- IC50 (TNF release; [1]): > 10000 nM

Compound: COc1cccc(-c2nc(S(=O)(=O)c3ccc(Cl)cc3)c(S(=O)(=O)C(C)C)[nH]2)c1 [BC19336]
- IC50 (NF-κB; LPS-stimulated): > 10000 nM
- IC50 (TNF release; [1]): > 10000 nM

Compound: COCC[S+]([O-])c1[nH]c(-c2cccc(OC)c2)nc1S(=O)(=O)c1ccc(Cl)cc1 (stereo not drawn) [BC19337]
- IC50 (NF-κB; LPS-stimulated): > 10000 nM
- IC50 (TNF release; [1]): > 10000 nM

Compound: C[S+]([O-])c1[nH]nc(N)c1S(=O)(=O)c1ccccc1 (stereo not drawn) [BC19338]
- IC50 (NF-κB; LPS-stimulated): > 10000 nM
- IC50 (TNF release; [1]): > 10000 nM

Compound: CS(=O)(=O)c1[nH]nc(N)c1S(=O)(=O)c1ccccc1 [BC19339]
- IC50 (NF-κB; LPS-stimulated): > 10000 nM
- IC50 (TNF release; [1]): > 10000 nM

Compound: Cc1nc2c(S(=O)(=O)c3ccccc3)c([S+](C)[O-])nn2c(C)c1C (stereo not drawn) [BC19340]
- IC50 (NF-κB; LPS-stimulated): > 10000 nM
- IC50 (TNF release; [1]): > 10000 nM

Compound: Cc1cc(O)n2nc([S+](C)[O-])c(S(=O)(=O)c3ccccc3)c2n1 (stereo not drawn) [BC19341]
- IC50 (NF-κB; LPS-stimulated): > 10000 nM
- IC50 (TNF release; [1]): > 10000 nM

Compound: C[S+]([O-])c1oc(-c2cccc(F)c2)nc1S(=O)(=O)c1ccc(Cl)cc1 (stereo not drawn) [BC19342]
- IC50 (NF-κB; LPS-stimulated): < 100 nM
- IC50 (TNF release; [1]): < 100 nM

Compound: CS(=O)(=O)c1oc(-c2cccc(F)c2)nc1S(=O)(=O)c1ccc(Cl)cc1 [BC19343]
- IC50 (NF-κB; LPS-stimulated): 1000 to 10000 nM
- IC50 (TNF release; [1]): < 100 nM

Compound: CCC[S+]([O-])c1oc(-c2cccc(F)c2)nc1S(=O)(=O)c1ccc(Cl)cc1 (stereo not drawn) [BC19344]
- IC50 (NF-κB; LPS-stimulated): 100 to 1000 nM
- IC50 (TNF release; [1]): 100 to 1000 nM

Compound: CCCS(=O)(=O)c1oc(-c2cccc(F)c2)nc1S(=O)(=O)c1ccc(Cl)cc1 [BC19345]
- IC50 (NF-κB; LPS-stimulated): 100 to 1000 nM
- IC50 (TNF release; [1]): 100 to 1000 nM

Compound: CC(C)[S+]([O-])c1oc(-c2cccc(F)c2)nc1S(=O)(=O)c1ccc(Cl)cc1 (stereo not drawn) [BC19346]
- IC50 (NF-κB; LPS-stimulated): < 100 nM
- IC50 (TNF release; [1]): < 100 nM
